Results published in PMC10165273, “Itch receptor MRGPRX4 interacts with the receptor activity–modifying proteins” (The Journal of Biological Chemistry, 2023).
“And” between values parts separate entries of the source, which are not always exact repeats. Equal values may be shown once. Read-outs that look alike come from different tables or passages of the source.

Target: T1, MRGPRX4 (Homo sapiens, UniProt Q96LA9)
T1 construct: expressed in transfected cells; host or cells: HEK293T
Assay: IP1 accumulation HTRF assay, MRGPRX4
Format: cell-based
Set-up: key to IP1 Basal / IP1 accumulation with YM (Figure 1c) / response to agonist, MRGPRX4 / IP1 accumulation: % IP1: unstimulated mock-transfected = 0%, fully stimulated MRGPRX4 = 100%
Conditions: for IP1 accumulation: MRGPRX4 alone, Fig S3d-f
Description: HEK293T cells were transfected with 1 pg/cell of MRGPRX4 DNA, and the amount of DNA was kept constant at 2 pg/cell with pcDNA3.1(+) empty vector, unless otherwise specified. Twenty four hours after transfection, IP1 assay was performed as previously described ([51]). When applicable, cells were treated with 1 μM YM254890 (YM) or different concentrations of U73122 for 1 h prior to addition of agonist or buffer. After incubation for 2 h, HTRF reagents and IP1 calibration standards were added and incubated for 2 h in the dark at room temperature. Time-resolved fluorescence signals were read on the BioTek Synergy NEO-TRF Hybrid multi-mode reader (BioTek Instruments). All data were carried out in three independent experiments with three technical replicate each.
For characterization of the Tet-On Nluc-HT7-MRGPRX4-GFP10-1D4 construct, HEK293T cells were transfected as previously described with some modifications. Dox dose-response of NLuc-HT7-MRGPRX4-GFP10-1D4 DNA titration was assayed by transfecting HEK293T cells with either 1 or 2 pg/cell of NLuc-HT7-MRGPRX4-GFP10-1D4 construct. Receptor expression was induced 4 h after transfection with addition of different concentrations of dox for 20 h. For the RAMP DNA titration assay, cells were cotransfected with a constant amount of 1 pg/cell of NLuc-HT7-MRGPRX4-GFP10-1D4 DNA and 1, 0.75, 0.5, or 0 pg/cell of each HA-RAMP-OLLAS with the homogenous transfection method. Four hours after transfection, receptor expression was induced with addition of 1000 ng/ml dox. Twenty hours after induction, IP1 assay was performed.
Data reduction, standard calibration, and transformation of HTRF data were performed as previously described ([51]). Normalized IP1 values were calculated relative to the unstimulated mock-transfected cells (set to 0%) and fully stimulated MRGPRX4 (alone if applicable) (set to 100%).

T1 sequence (Q96LA9 whole entry): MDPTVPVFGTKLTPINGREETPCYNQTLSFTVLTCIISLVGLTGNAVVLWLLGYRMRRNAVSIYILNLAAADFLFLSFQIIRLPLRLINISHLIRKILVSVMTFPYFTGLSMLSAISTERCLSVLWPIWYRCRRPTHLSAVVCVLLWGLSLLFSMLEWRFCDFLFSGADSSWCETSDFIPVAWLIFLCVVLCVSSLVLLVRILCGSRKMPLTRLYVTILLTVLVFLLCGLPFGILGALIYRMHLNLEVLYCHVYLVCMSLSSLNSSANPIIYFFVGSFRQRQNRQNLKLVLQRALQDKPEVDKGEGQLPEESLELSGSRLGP

## C[C@H](CCC(=O)O)[C@H]1CC[C@H]2[C@@H]3CC[C@@H]4C[C@H](O)CC[C@]4(C)[C@H]3C[C@H](O)[C@]12C [DCA, deoxycholic acid]
Figure 4a bottom, MRGPRX4 alone (reference = 100), individual replicates
  efficacy: 100
Figure 4a bottom, MRGPRX4 alone (reference = 100), individual replicates, read-out: efficacy
  Emax: 100%
Figure 4c-f, agonist 100µM, MRGPRX4 alone (reference = 100)
  response to agonist, MRGPRX4: 100
HA-MRGX4-1D4, log [agonist] (M) -4
  normalized IP1 accumulation: 58.1095 and 47.3107
HA-MRGX4-1D4, log [agonist] (M) -4.69897
  normalized IP1 accumulation: 33.2327 and 34.6328
HA-MRGX4-1D4, log [agonist] (M) -5.39794
  normalized IP1 accumulation: 18.9895
HA-MRGX4-1D4, log [agonist] (M) -6.09691
  normalized IP1 accumulation: 13.2757 and 15.4467
HA-MRGX4-1D4, log [agonist] (M) -6.79588
  normalized IP1 accumulation: 13.3916 and 13.9578
HA-MRGX4-1D4, log [agonist] (M) -7.49485
  normalized IP1 accumulation: 12.579 and 14.4894
HEK-293T, MRGPRX4 (Fig. 1A), HEK293T, normalized to 100 μM nateglinide, read-out: IP1 Emax
  Emax: 77.9%
HEK-293T, MRGPRX4 (Fig. 1A), HEK293T, normalized to 100 μM nateglinide, read-out: IP1 span
  Emax: 62.9%
MRGPRX4 0.125 pg DNA/cell, individual experiments, read-out: efficacy (Figure 1b bottom)
  Emax: 47.9%
MRGPRX4 0.25 pg DNA/cell, individual experiments, read-out: efficacy (Figure 1b bottom)
  Emax: 45%
MRGPRX4 0.5 pg DNA/cell, individual experiments, read-out: efficacy (Figure 1b bottom)
  Emax: 58.3%
MRGPRX4 1 pg DNA/cell, individual experiments, read-out: efficacy (Figure 1b bottom)
  Emax: 70.6%
MRGPRX4 2 pg DNA/cell, individual experiments, read-out: efficacy (Figure 1b bottom)
  Emax: 80.7%
MRGPRX4 (Fig. 1A), HEK293T, normalized to 100 μM nateglinide
  IP1 Basal: 15.03
MRGPRX4 DNA 0.25 pg/cell (Fig. S1)
  IP1 Basal: 4.249
MRGPRX4 DNA 0.25 pg/cell (Fig. S1), read-out: IP1 Emax
  Emax: 54.2%
MRGPRX4 DNA 0.25 pg/cell (Fig. S1), read-out: IP1 span
  Emax: 50%
MRGPRX4 DNA 0.5 pg/cell (Fig. S1)
  IP1 Basal: 6.783
MRGPRX4 DNA 0.5 pg/cell (Fig. S1), read-out: IP1 Emax
  Emax: 68%
MRGPRX4 DNA 0.5 pg/cell (Fig. S1), read-out: IP1 span
  Emax: 61.2%
MRGPRX4 DNA 1 pg/cell (Fig. S1)
  IP1 Basal: 9.471
MRGPRX4 DNA 1 pg/cell (Fig. S1), read-out: IP1 Emax
  Emax: 73.8%
MRGPRX4 DNA 1 pg/cell (Fig. S1), read-out: IP1 span
  Emax: 64.3%
MRGPRX4 DNA 2 pg/cell (Fig. S1)
  IP1 Basal: 12.99
MRGPRX4 DNA 2 pg/cell (Fig. S1), read-out: IP1 Emax
  Emax: 87.2%
MRGPRX4 DNA 2 pg/cell (Fig. S1), read-out: IP1 span
  Emax: 74.2%
MRGPRX4 DNA […] (Fig. S1), read-out: IP1 Emax
  Emax: 50.3%
MRGPRX4 DNA […] (Fig. S1), read-out: IP1 span
  Emax: 47%
Log [DCA] (M) -4.69897
  IP1 accumulation: 57.1868 and 75.4734
Log [DCA] (M) -5.39794
  IP1 accumulation: 30.3386
Log [DCA] (M) -6.09691
  IP1 accumulation: 23.4514 and 33.1858
Log [DCA] (M) -6.79588
  IP1 accumulation: 21.3567 and 30.9234
Log [DCA] (M) -7.49485
  IP1 accumulation: 19.4869 and 27.2792
SP-FLAG-Nluc-HT7-MRGX4_Tet-GFP10-1D4, log [agonist] (M) -4.09691
  normalized IP1 accumulation: 41.457 and 40.0931
SP-FLAG-Nluc-HT7-MRGX4_Tet-GFP10-1D4, log [agonist] (M) -4.79588
  normalized IP1 accumulation: 23.5519 and 24.4487
SP-FLAG-Nluc-HT7-MRGX4_Tet-GFP10-1D4, log [agonist] (M) -5.49485
  normalized IP1 accumulation: 12.8144 and 13.3904
SP-FLAG-Nluc-HT7-MRGX4_Tet-GFP10-1D4, log [agonist] (M) -6.19382
  normalized IP1 accumulation: 11.7164 and 10.0407
SP-FLAG-Nluc-HT7-MRGX4_Tet-GFP10-1D4, log [agonist] (M) -6.89279
  normalized IP1 accumulation: 9.829 and 11.4364
SP-FLAG-Nluc-HT7-MRGX4_Tet-GFP10-1D4, log [agonist] (M) -7.59176
  normalized IP1 accumulation: 10.7139 and 10.5391
SP-FLAG-Nluc-HT7-MRGX4_Tet-GFP10-1D4 no dox, log [agonist] (M) -4.09691
  normalized IP1 accumulation: 9.638 and 9.7
SP-FLAG-Nluc-HT7-MRGX4_Tet-GFP10-1D4 no dox, log [agonist] (M) -4.79588
  normalized IP1 accumulation: 7.503 and 8.174
SP-FLAG-Nluc-HT7-MRGX4_Tet-GFP10-1D4 no dox, log [agonist] (M) -5.49485
  normalized IP1 accumulation: 9.457 and 8.365
SP-FLAG-Nluc-HT7-MRGX4_Tet-GFP10-1D4 no dox, log [agonist] (M) -6.19382
  normalized IP1 accumulation: 8.686 and 8.091
SP-FLAG-Nluc-HT7-MRGX4_Tet-GFP10-1D4 no dox, log [agonist] (M) -6.89279
  normalized IP1 accumulation: 8.749 and 8.325
SP-FLAG-Nluc-HT7-MRGX4_Tet-GFP10-1D4 no dox, log [agonist] (M) -7.59176
  normalized IP1 accumulation: 8.705 and 9.2498
SP-Flag-MRGX4-1D4, log [agonist] (M) -4
  normalized IP1 accumulation: 68.6268 and 66.4742
SP-Flag-MRGX4-1D4, log [agonist] (M) -4.69897
  normalized IP1 accumulation: 30.127 and 33.8796
SP-Flag-MRGX4-1D4, log [agonist] (M) -5.39794
  normalized IP1 accumulation: 14.3992 and 13.1143
SP-Flag-MRGX4-1D4, log [agonist] (M) -6.09691
  normalized IP1 accumulation: 8.224 and 9.664
SP-Flag-MRGX4-1D4, log [agonist] (M) -6.79588
  normalized IP1 accumulation: 7.099 and 7.695
SP-Flag-MRGX4-1D4, log [agonist] (M) -7.49485
  normalized IP1 accumulation: 6.315 and 7.555
SP-Flag-MRGX4-GFP10-1D4, log [agonist] (M) -4
  normalized IP1 accumulation: 68.4519 and 65.3389
SP-Flag-MRGX4-GFP10-1D4, log [agonist] (M) -4.69897
  normalized IP1 accumulation: 36.0479 and 38.0394
SP-Flag-MRGX4-GFP10-1D4, log [agonist] (M) -6.09691
  normalized IP1 accumulation: 10.072 and 10.3886
SP-Flag-MRGX4-GFP10-1D4, log [agonist] (M) -6.79588
  normalized IP1 accumulation: 8.9869 and 9.025
SP-Flag-MRGX4-GFP10-1D4, log [agonist] (M) -7.49485
  normalized IP1 accumulation: 7.933 and 9.527
Construct FLAG-MRGPRX4-1D4 (Fig. S4A-F)
  IP1 Basal: 7.469
Construct FLAG-MRGPRX4-1D4 (Fig. S4A-F), read-out: IP1 Emax
  Emax: 96.3%
Construct FLAG-MRGPRX4-1D4 (Fig. S4A-F), read-out: IP1 span
  Emax: 88.8%
Construct FLAG-MRGPRX4-GFP10-1D4 (Fig. S4A-F)
  IP1 Basal: 8.165
Construct FLAG-MRGPRX4-GFP10-1D4 (Fig. S4A-F), read-out: IP1 Emax
  Emax: 88.5%
Construct FLAG-MRGPRX4-GFP10-1D4 (Fig. S4A-F), read-out: IP1 span
  Emax: 80.4%
Construct FLAG-NLuc-HT7-MRGPRX4-GFP10-1D4 (Fig. S4A-F)
  IP1 Basal: 10.56
Construct FLAG-NLuc-HT7-MRGPRX4-GFP10-1D4 (Fig. S4A-F), read-out: IP1 Emax
  Emax: 55%
Construct FLAG-NLuc-HT7-MRGPRX4-GFP10-1D4 (Fig. S4A-F), read-out: IP1 span
  Emax: 44.5%
Construct HA-MRGPRX4-1D4 (Fig. S4A-F)
  IP1 Basal: 12.52
Construct HA-MRGPRX4-1D4 (Fig. S4A-F), read-out: IP1 Emax
  Emax: 64.7%
Construct HA-MRGPRX4-1D4 (Fig. S4A-F), read-out: IP1 span
  Emax: 52.2%
